# Experimental data taken from patent US20080125408A1, “PENEM PRODRUG” (Pfizer Inc, priority 2006, published 2008).
# Where two headings read alike, the source gives them in different places.
# Tests used:
# [1] = humans, about 500 mg equivalent dose; cited from earlier work
# [2] = test system: Haemophilus influenzae β-lactamase+; test: MIC90 of sulopenem (in vitro activity); assay type: cell-based
# [3] = test system: Klebsiella pneumoniae ESBL+; test: MIC90 of sulopenem (in vitro activity); assay type: cell-based
# [4] = test system: Escherichia coli; test: MIC90 of sulopenem (in vitro activity); assay type: cell-based
# [5] = test system: Streptococcus pneumoniae penicillin-susceptible; test: MIC90 of sulopenem (in vitro activity); assay type: cell-based
# [6] = test system: Corynebacterium spp (not C. jeikeium); test: MIC90 of sulopenem (in vitro activity); assay type: cell-based
# [7] = test system: Streptococcus pyogenes (Group A); test: MIC90 of sulopenem (in vitro activity); assay type: cell-based
# [8] = test system: Viridans Streptococcus group; test: MIC90 of sulopenem (in vitro activity); assay type: cell-based
# [9] = test system: Citrobacter freundii; test: MIC90 of sulopenem (in vitro activity); assay type: cell-based
# [10] = in vivo; cited from earlier work
# [11] = test system: Enterobacter aerogenes; test: MIC90 of sulopenem (in vitro activity); assay type: cell-based; details: Klebsiella aerogenes
# [12] = test system: Citrobacter diversus; test: MIC90 of sulopenem (in vitro activity); assay type: cell-based; details: Citrobacter koseri
# [13] = test system: Streptococcus bovis (Group D); test: MIC90 of sulopenem (in vitro activity); assay type: cell-based; details: Streptococcus equinus
# [14] = test system: Proteus mirabilis; test: MIC90 of sulopenem (in vitro activity); assay type: cell-based
# [15] = test system: Pseudomonas aeruginosa, Acinetobacter spp., Stenotrophomonas maltophilia, multi-resistant enterococci and methicillin-resistant staphylococci; test: Antibacterial spectrum: pathogens against which there is no activity; assay type: cell-based
# [16] = test system: Moraxella catarrhalis β-lactamase−; test: MIC90 of sulopenem (in vitro activity); assay type: cell-based
# [17] = test system: Streptococcus pneumonia penicillin-intermediate; test: MIC90 of sulopenem (in vitro activity); assay type: cell-based; details: Streptococcus pneumoniae
# [18] = test system: Listeria monocytogenes; test: MIC90 of sulopenem (in vitro activity); assay type: cell-based
# Method: (§1) The in vitro activity of sulopenem (B9) (the parent acid) based on minimum inhibitory concentration (MIC) was evaluated against pathogens involved in […] community and hospital infections, as summarized in Table 1.
# [19] = test system: Staphylococcus aureus oxacillin-S; test: MIC90 of sulopenem (in vitro activity); assay type: cell-based
# Method: as §1
# [20] = test system: Streptococcus agalactiae (Group B); test: MIC90 of sulopenem (in vitro activity); assay type: cell-based
# Method: as §1
# [21] = test system: Prevotella spp; test: MIC90 of sulopenem (in vitro activity); assay type: cell-based
# Method: as §1
# [22] = test system: Klebsiella pneumoniae; test: MIC90 of sulopenem (in vitro activity); assay type: cell-based
# Method: as §1
# [23] = test system: Klebsiella oxytoca; test: MIC90 of sulopenem (in vitro activity); assay type: cell-based
# Method: as §1
# [24] = test system: Salmonella/Shigella; test: MIC90 of sulopenem (in vitro activity); assay type: cell-based
# Method: as §1
# [25] = test system: Staphylococcus saprophyticus; test: MIC90 of sulopenem (in vitro activity); assay type: cell-based
# [26] = test system: Neisseria meningitides; test: MIC90 of sulopenem (in vitro activity); assay type: cell-based
# [27] = test system: Morganella morganii; test: MIC90 of sulopenem (in vitro activity); assay type: cell-based
# [28] = test system: Enterobacter cloacae; test: MIC90 of sulopenem (in vitro activity); assay type: cell-based
# [29] = test system: Bacteroides fragilis; test: MIC90 of sulopenem (in vitro activity); assay type: cell-based
# [30] = test system: Streptococcus pneumoniae levofloxacin-resistant; test: MIC90 of sulopenem (in vitro activity); assay type: cell-based
# [31] = test system: Moraxella catarrhalis β-lactamase+; test: MIC90 of sulopenem (in vitro activity); assay type: cell-based
# [32] = test system: Streptococcus pneumoniae penicillin-resistant; test: MIC90 of sulopenem (in vitro activity); assay type: cell-based
# [33] = test system: Alloiococcus otitidis; test: MIC90 of sulopenem (in vitro activity); assay type: cell-based; details: Alloiococcus otitis
# [34] = test system: Clostridium perfringens; test: microbe, parasite or virus in culture; assay type: cell-based
# [35] = test system: Haemophilus influenzae β-lactamase−; test: MIC90 of sulopenem (in vitro activity); assay type: cell-based
# [36] = test system: Legionella pneumophila; test: microbe, parasite or virus in culture; assay type: cell-based
# [37] = Human Intestinal Juice (HIJ) stability studies; assay type: in vitro ADME; details: pooled HIJ from 4 subjects, buffered pH 7.4, 37° C., substrate 1-300 μM
# Method: In the HIJ experiments, HIJ from 4 individual subjects (1 mL each) was pooled with 1 mL of 600 mM potassium phosphate buffer pH 7.4. Aliquots of 300 μL×6 of the buffered human intestinal juice were incubated at 37° C. following fortification of substrate at concentrations of 300, 100, 30, 10, 3, and 1 μM. Two prodrug compounds could be run at the same time. Samples of 35 μL were taken at 0, 0.5, 1, 2, 10, and 20 minutes and quenched with 70 μL of 80/20 acetonitrile/100 mM ammonium acetate pH 4.5 containing an internal standard (ampicillin, 5 μg/mL). Samples were centrifuged at 3000 g for 10 minutes and the supernatants transferred to injection vials. First order degradation of the prodrug was monitored by LC/MS/MS as described below. The percentage of prodrug remaining versus time at each concentration was fitted to a first order decay function to determine the substrate depletion rate constant or kdep. A linear-log plot of kdep versus concentration could be fitted with the following equation where: [formula] […] In Michaelis-Menton terms, intrinsic clearance CLint represents the ratio of Vmax/Km when [S] is well below the Km. Substrate units for these studies were reported in μM and intrinsic clearance (CIint) in mL/min.
# [38] = Liver S9 stability and conversion efficiency to sulopenem; assay type: in vitro ADME, human; details: human; prodrug degradation; liver S9 1:10, 50 μM, pH 7.4, 37° C.
# Method: Oral bioavailability can be predicted variously by factors including one or more of (1) GI tract stability, (2) Caco-2 permeability, (3) efficiency of conversion to sulopenem, and (4) high solubility. Accordingly, the sulopenem prodrugs of the invention were evaluated, as detailed below, for stability in human intestinal juice (HIJ), efficiency of conversion to sulopenem in human liver homogenate, whole blood conversion and solubility as measured in phosphate buffer pH 5.0. Liver S9 was prepared fresh from liver chunks stored at −70° C. for each analysis completed. Approximately 5 g of frozen liver tissue was homogenized to uniformity in 15 mL of ice cold 100 mM potassium phosphate (pH 7.4) buffer. The homogenate was then centrifuged at 9000 g for 20 minutes at 5° C. to isolate the S9 supernatant fraction. Each incubation was run at a 1:10 dilution of the S9 supernatant in 100 mM potassium phosphate (pH 7.4) buffer. Reactions (1 mL) were initiated by the addition of substrate (50 μM final) at 37° C. Stability and conversion efficiency were assessed in 1 mL incubations with heparinized whole blood at 37° C. For both S9 homogenates and whole blood incubations, aliquots (75 μL) were obtained at 0, 0.5, 1, 2, 3, 5, 10, and 20 minutes and quenched in 150 μL of 80/20 acetonitrile/100 mM ammonium acetate pH 4.5 containing an internal standard (ampicillin, 5 μg/mL). Samples were centrifuged at 3000 g for 10 minutes and the supernatants transferred to injection vials. First order degradation of the prodrug was monitored by LC/MS/MS as described below. Conversion to sulopenem was expressed as a percentage of the molar equivalent (50 μM) in a fortified sample. The results of the S9 and whole blood stability and conversion studies are shown in Table 2, where single values represent an average of two duplicate determinations.
# [39] = Equilibrium solubility in phosphate buffer pH 5; details: phosphate buffer, pH 5, aqueous buffer, thermodynamic from solid
structure (smiles),measurement,setting,value
CC(O)C1C(=O)N2C(C(=O)OCOC(=O)C(C)(C)C)=C(SC3CC[S+]([O-])C3)SC12 (stereo not shown) [POM ester],oral bioavailability,[1],less than optimal oral bioavailability
"C[C@@H](O)[C@H]1C(=O)N2C(C(=O)O)=C(S[C@H]3CC[S@@+]([O-])C3)S[C@H]12 [Sulopenem, (5R,6S)-6-[(1R)-1-hydroxyethyl]-7-oxo-3-[(1R,3S)-tetrahydro-1-oxido-3-thienylthio]-4-thia-1-azabicyclo[3.2.0]hept-2-ene-2-carboxylic acid]",MIC90,[2],0.5 µg/mL
same,MIC90,[3],0.25 µg/mL
same,MIC90,[4],0.06 µg/mL
same,MIC90,[5],0.03 µg/mL
same,MIC90,[6],2 µg/mL
same,MIC90,[7],0.03 µg/mL
same,MIC90,[8],0.25 µg/mL
same,MIC90,[9],0.25 µg/mL
same,oral bioavailability,[10],not appreciably orally bioavailable
same,MIC90,[11],0.5 µg/mL
same,MIC90,[12],0.06 µg/mL
same,MIC90,[13],0.06 µg/mL
same,MIC90,[14],0.5 µg/mL
same,antibacterial activity,[15],not active
same,MIC90,[16],0.03 µg/mL
same,MIC90,[17],0.25 µg/mL
same,MIC90,[18],0.125 µg/mL
same,MIC90,[19],0.125 µg/mL
same,MIC90,[20],0.125 µg/mL
same,MIC90,[21],0.125 µg/mL
same,MIC90,[22],0.125 µg/mL
same,MIC90,[23],0.125 µg/mL
same,MIC90,[24],0.125 µg/mL
same,MIC90,[25],0.5 µg/mL
same,MIC90,[26],0.06 µg/mL
same,MIC90,[27],2 µg/mL
same,MIC90,[28],1 µg/mL
same,MIC90,[29],0.5 µg/mL
same,MIC90,[30],0.5 µg/mL
same,MIC90,[31],0.125 µg/mL
same,MIC90,[32],1 µg/mL
same,MIC90,[33],1 µg/mL
same,MIC90,[34],0.06 µg/mL
same,MIC90,[35],0.25 µg/mL
same,MIC90,[36],0.06 µg/mL
"CCCc1oc(=O)oc1COC(=O)C1=C(S[C@H]2CC[S@@+]([O-])C2)S[C@@H]2[C@@H]([C@@H](C)O)C(=O)N12 [Compound 2, (5-propyl-2-oxo-1,3-dioxol-4-yl)methyl (5R,6S)-6-[(1R)-1-hydroxyethyl]-7-oxo-3-[[(1R,3S)-tetrahydro-1-oxido-3-thienyl]thio]-4-thia-1-azabicyclo[3.2.0]hept-2-ene-2-carboxylate]",Km,"[37]; human, pooled human intestinal juice (HIJ)",22 µM
same,HIJ CLint,[37],0.16 mL/min
same,half-life at 50 µM,[38],3.62 min
same,solubility,[39],507 µg/mL
